According to patent US20240293413A1, “COMPOUND AND METHOD FOR TREATING CHEMOTHERAPY-RELATED GASTROINTESTINAL SIDE EFFECTS” (ONQUALITY PHARMACEUTICALS CHINA LTD., priority 2021, published 2024):

Legend:
Assay type in all cases: in vivo
[1] = tested on: diarrhea caused by a chemotherapeutic agent in Balb/c mice; experiment: Examples 230-271 (Table 4): oral CDK inhibitor, relief of diarrhea caused by a chemotherapeutic agent; conditions: CDK inhibitor oral 150 mg/kg single, cycle 7 days
Description: Balb/c mice were fed for 1 week, and then divided into groups. The experiment was divided into a control group, a chemotherapeutic agent group, and a CDK inhibitor group, each of which comprised 10 mice, to perform the administration experiment, for which the administration dosage, mode, time and frequency were shown in Table 4. The control group: being intragastrically administered with the same solvent as that used in the CDK inhibitor group (the time was shown in Table 4), and then being injected/intragastrically administered with the same solvent as that used in the chemotherapeutic agent group (the administration mode was shown in Table 4): the chemotherapeutic agent group: being intragastrically administered with the same solvent as that used in the CDK inhibitor group (the time was shown in Table 4), and then being injected/intragastrically administered with the chemotherapeutic agent (the type, administration mode and dosage were shown in Table 4): the CDK inhibitor group: being intragastrically administered with the CDK inhibitor (the time was shown in Table 4), and then being administered with the chemotherapeutic agent (the mode and dosage were shown in Table 4).
The diarrhea grading of mice was observed and recorded every day.

[2] = tested on: Chemotherapeutic agent-caused diarrhea models of Balb/c mice; experiment: Examples 1-229 (Table 3): oral CDK inhibitor, relief of diarrhea caused by a chemotherapeutic agent;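 note: percent of treated mice whose diarrhea grade fell below chemotherapy-group average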
[3] = tested on: diarrhea caused by a chemotherapeutic agent in Balb/c mice; experiment: Examples 343-381 (Table 6): oral versus intravenous CDK inhibitor, relief of diarrhea caused by a chemotherapeutic agent;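 note: percent of treated mice whose diarrhea grade fell below chemotherapy-group average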
In short: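 Balb/c mice (10 per group) received the CDK inhibitor orally or by tail-vein injection, or vehicle, followed by a chemotherapeutic agent or its solvent. Diarrhea grade was scored daily.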

SMILES: CCN1CCN(Cc2ccc(Nc3ncc(F)c(-c4cc(F)c5nc(C)n(C(C)C)c5c4)n3)nc2)CC1 [Abemaciclib]
- Relative remission rate ([1]; Example 253, Methotrexate (MTX) intramuscular injection 300 mg/kg single, 8 h before): 70%
- Relative remission rate ([1]; Example 263, Vinorelbine (NVB) intravenous injection 10 mg/kg single, 0.5 h before): 60%
- Relative remission rate ([1]; Example 264, Vinorelbine (NVB) intravenous injection 10 mg/kg single, 4 h before): 80%
- Relative remission rate ([1]; Example 265, Vinorelbine (NVB) intravenous injection 10 mg/kg single, 8 h before): 80%
- Relative remission rate ([1]; Example 266, Vinorelbine (NVB) intravenous injection 10 mg/kg single, 12 h before): 60%
- Relative remission rate ([1]; Example 267, Vinorelbine (NVB) intravenous injection 10 mg/kg single, 24 h before): 50%
- Relative remission rate ([1]; Example 268, Vinorelbine (NVB) intravenous injection 10 mg/kg single, 48 h before): 0%
- Relative remission rate (%) ([2]; Example 48, Fluorouracil (5-Fu) intramuscular injection 125 mg/kg single, CDK inhibitor oral 150 mg/kg single 8 h before, cycle 10 days): 40%
- Relative remission rate (%) ([2]; Example 89, Irinotecan (CPT-11) intraperitoneal injection 240 mg/kg single, CDK inhibitor oral 150 mg/kg single 0.5 h before, cycle 7 days): 30%
- Relative remission rate (%) ([2]; Example 90, Irinotecan (CPT-11) intraperitoneal injection 240 mg/kg single, CDK inhibitor oral 150 mg/kg single 1 h before, cycle 7 days): 30%
- Relative remission rate (%) ([2]; Example 91, Irinotecan (CPT-11) intraperitoneal injection 240 mg/kg single, CDK inhibitor oral 150 mg/kg single 2 h before, cycle 7 days): 40%
- Relative remission rate (%) ([2]; Example 92, Irinotecan (CPT-11) intraperitoneal injection 240 mg/kg single, CDK inhibitor oral 150 mg/kg single 3 h before, cycle 7 days): 30%
- Relative remission rate (%) ([2]; Example 93, Irinotecan (CPT-11) intraperitoneal injection 240 mg/kg single, CDK inhibitor oral 150 mg/kg single 4 h before, cycle 7 days): 50%
- Relative remission rate (%) ([2]; Example 94, Irinotecan (CPT-11) intraperitoneal injection 240 mg/kg single, CDK inhibitor oral 150 mg/kg single 5 h before, cycle 7 days): 60%
- Relative remission rate (%) ([2]; Example 95, Irinotecan (CPT-11) intraperitoneal injection 240 mg/kg single, CDK inhibitor oral 150 mg/kg single 6 h before, cycle 7 days): 60%
- Relative remission rate (%) ([2]; Example 96, Irinotecan (CPT-11) intraperitoneal injection 240 mg/kg single, CDK inhibitor oral 150 mg/kg single 7 h before, cycle 7 days): 60%
- Relative remission rate (%) ([2]; Example 97, Irinotecan (CPT-11) intraperitoneal injection 240 mg/kg single, CDK inhibitor oral 150 mg/kg single 8 h before, cycle 7 days): 70%
- Relative remission rate (%) ([2]; Example 98, Irinotecan (CPT-11) intraperitoneal injection 240 mg/kg single, CDK inhibitor oral 150 mg/kg single 9 h before, cycle 7 days): 50%
- Relative remission rate (%) ([2]; Example 99, Irinotecan (CPT-11) intraperitoneal injection 240 mg/kg single, CDK inhibitor oral 12.5 mg/kg single 10 h before, cycle 7 days): 20%
- Relative remission rate (%) ([2]; Example 100, Irinotecan (CPT-11) intraperitoneal injection 240 mg/kg single, CDK inhibitor oral 25 mg/kg single 10 h before, cycle 7 days): 40%
- Relative remission rate (%) ([2]; Example 101, Irinotecan (CPT-11) intraperitoneal injection 240 mg/kg single, CDK inhibitor oral 50 mg/kg single 10 h before, cycle 7 days): 80%
- Relative remission rate (%) ([2]; Example 102, Irinotecan (CPT-11) intraperitoneal injection 240 mg/kg single, CDK inhibitor oral 100 mg/kg single 10 h before, cycle 7 days): 50%
- Relative remission rate (%) ([2]; Example 103, Irinotecan (CPT-11) intraperitoneal injection 240 mg/kg single, CDK inhibitor oral 150 mg/kg single 10 h before, cycle 7 days): 70%
- Relative remission rate (%) ([2]; Example 104, Irinotecan (CPT-11) intraperitoneal injection 240 mg/kg single, CDK inhibitor oral 100 mg/kg single 11 h before, cycle 7 days): 80%
- Relative remission rate (%) ([2]; Example 105, Irinotecan (CPT-11) intraperitoneal injection 240 mg/kg single, CDK inhibitor oral 100 mg/kg single 12 h before, cycle 7 days): 80%
- Relative remission rate (%) ([2]; Example 106, Irinotecan (CPT-11) intraperitoneal injection 240 mg/kg single, CDK inhibitor oral 100 mg/kg single 14 h before, cycle 7 days): 90%
- Relative remission rate (%) ([2]; Example 107, Irinotecan (CPT-11) intraperitoneal injection 240 mg/kg single, CDK inhibitor oral 100 mg/kg single 16 h before, cycle 7 days): 70%
- Relative remission rate (%) ([2]; Example 108, Irinotecan (CPT-11) intraperitoneal injection 240 mg/kg single, CDK inhibitor oral 100 mg/kg single 18 h before, cycle 7 days): 70%
- Relative remission rate (%) ([2]; Example 109, Irinotecan (CPT-11) intraperitoneal injection 240 mg/kg single, CDK inhibitor oral 100 mg/kg single 20 h before, cycle 7 days): 40%
- Relative remission rate (%) ([2]; Example 110, Irinotecan (CPT-11) intraperitoneal injection 240 mg/kg single, CDK inhibitor oral 100 mg/kg single 22 h before, cycle 7 days): 40%
- Relative remission rate (%) ([2]; Example 111, Irinotecan (CPT-11) intraperitoneal injection 240 mg/kg single, CDK inhibitor oral 100 mg/kg single 24 h before, cycle 7 days): 40%
- Relative remission rate (%) ([2]; Example 112, Irinotecan (CPT-11) intraperitoneal injection 240 mg/kg single, CDK inhibitor oral 100 mg/kg single 48 h before, cycle 7 days): 0%
- Relative remission rate (%) ([2]; Example 226, Topotecan intraperitoneal injection 10 mg/kg single, CDK inhibitor oral 150 mg/kg single, 6 h before, 14 days): 40%
- Relative remission rate ([3]; Example 364, Carboplatin (CBP) intramuscular injection 150 mg/kg single, CDK inhibitor intravenous injection 150 mg/kg single, 8 h before, cycle 10 days): 20%
- Relative remission rate ([3]; Example 364, Carboplatin (CBP) intramuscular injection 150 mg/kg single, CDK inhibitor oral 150 mg/kg single, 8 h before, cycle 10 days): 50%
- Relative remission rate ([3]; Example 371, Gemcitabine (GEM) intraperitoneal injection 120 mg/kg single, CDK inhibitor intravenous injection 150 mg/kg single, 0.5 h before, cycle 8 days): 10%
- Relative remission rate ([3]; Example 371, Gemcitabine (GEM) intraperitoneal injection 120 mg/kg single, CDK inhibitor oral 150 mg/kg single, 0.5 h before, cycle 8 days): 30%
- Relative remission rate ([3]; Example 372, Gemcitabine (GEM) intraperitoneal injection 120 mg/kg single, CDK inhibitor intravenous injection 150 mg/kg single, 4 h before, cycle 8 days): 10%
- Relative remission rate ([3]; Example 372, Gemcitabine (GEM) intraperitoneal injection 120 mg/kg single, CDK inhibitor oral 150 mg/kg single, 4 h before, cycle 8 days): 30%
- Relative remission rate ([3]; Example 373, Gemcitabine (GEM) intraperitoneal injection 120 mg/kg single, CDK inhibitor intravenous injection 150 mg/kg single, 8 h before, cycle 8 days): 20%
- Relative remission rate ([3]; Example 373, Gemcitabine (GEM) intraperitoneal injection 120 mg/kg single, CDK inhibitor oral 150 mg/kg single, 8 h before, cycle 8 days): 50%
- Relative remission rate ([3]; Example 374, Gemcitabine (GEM) intraperitoneal injection 120 mg/kg single, CDK inhibitor intravenous injection 150 mg/kg single, 12 h before, cycle 8 days): 20%
- Relative remission rate ([3]; Example 374, Gemcitabine (GEM) intraperitoneal injection 120 mg/kg single, CDK inhibitor oral 150 mg/kg single, 12 h before, cycle 8 days): 50%
- Relative remission rate ([3]; Example 375, Gemcitabine (GEM) intraperitoneal injection 120 mg/kg single, CDK inhibitor intravenous injection 150 mg/kg single, 24 h before, cycle 8 days): 10%
- Relative remission rate ([3]; Example 375, Gemcitabine (GEM) intraperitoneal injection 120 mg/kg single, CDK inhibitor oral 150 mg/kg single, 24 h before, cycle 8 days): 40%
